The values that follow come from article PMC7934871 (JCI Insight, 2021).

Data set [1] has as its target T1, exportin 7 (Homo sapiens, UniProt Q9UIA9).
T1 construct: endogenous in cells; host or cells: U251
The experiment in a line: Immunoprecipitation of FAM-labeled peptide and Western blotting, exportin 7. The format is binding. The settings on record: anti-FITC (FAM) immunoprecipitation, Western blotting, U251 cells. As to the method: Data are representative of 3 independent experiments (n = 3).
Whole cell lysates or tissue homogenates were prepared by using RIPA lysis buffer (50 mM Tris at pH 7.4, 150 mM NaCl, 1 mM EDTA, 0.5% NP-40, 1 mM NaF, 15% glycerol, and 20 mM β-glycerophosphate). A protease inhibitor cocktail (Mini Protease Inhibitor Cocktail; Roche) and a tyrosine phosphatase inhibitor, sodium orthovanadate (Na3VO4, 1 mM), were added freshly to the lysis buffer. Protein amounts were determined by BCA using a Thermo Fisher Scientific kit. Normalized protein amounts were subjected to an SDS-PAGE and transferred onto a nitrocellulose membrane for Western blotting. Proteins were visualized with a chemiluminescent detection kit (Pierce, Thermo Fisher Scientific). The protein levels for STAT1 (sc-346, E-23), STAT3 (sc-482, C-20), STAT5 (sc-74442, A-9), Crm1 (exportin 1) (sc-5595, H-300), CAS (exportin 2) (sc-271537, H-2), exportin 5 (sc-66885, H-300), and exportin 7 (sc-98639, H-82) were determined using antibodies from Santa Cruz Biotechnology Inc. Anti–exportin 3 (exportin T, 630622, LOS1 05-1525), anti–exportin 4 (3499-1), and anti–exportin 6 (11408-1-AP) were from MilliporeSigma, Epitomics, and Proteintech, respectively. […]

The test system of data set [2] is HCT116 xenograft tumors. The experiment in a line: HCT116 xenograft, monomer versus dimerized peptide, peritumoral. The format is in vivo, mouse. The settings on record: HCT116 s.c. in NSG mice, peritumoral injection, monomer or dimerized, n = 5. The text has this: Figure 5 Dimerized PS-acet.-STAT3 peptide has improved antitumor functions. (A) The enhanced antitumor effect of the dimerized PS-acet.-STAT3 peptide is shown in HCT116 tumors grown in NSG mice (n = 5). Two-way ANOVA (Tukey’s multiple comparisons test) was used for analyzing the kinetics of tumor growth over the treatment period; ****P < 0.001; *P < 0.05. (B) The dimerized PS-acet.-STAT3 peptide downregulates pY705-STAT3 more effectively, as analyzed by immunoprecipitation and Western blotting with tumor homogenates from the tumors in A. hc, heavy chain of antibody. […] (D) quantitative real-time RT-PCR showing mRNA levels of STAT3-regulated proapoptotic and prosurvival genes in HCT116 tumor tissues treated with the indicated STAT3 peptides in A. n = 3 independent quantitative real-time RT-PCR experiments. […] Right panels show the quantified Ki-67 protein levels as well as mean of vessel diameter (data include 5 fields of view per group). […]
Mouse care and experimental procedures were performed under pathogen-free conditions in accordance with established institutional guidance and approved IACUC protocols from Research Animal Care Committee of the City of Hope. […] Tumor growth was measured by a digital caliper every other day. […] Lungs were then analyzed for immune responses by immunostaining followed by confocal imaging. […] Tumor growth was measured by a digital caliper every other day. […]

Data set [3] relates to CRC patient primary tumor spheres.
Protocol: TAMRA-acet.-STAT3 (red fluorescence) and PO-FAM-acet.-STAT3 (green fluorescence)
peptides were incubated with patient primary tumor sphere for 4 hours and the cell penetration
was visualized by confocal microscopy. Scale bar: 50 µm.
(D) The primary CRC tumor cells derived from PDX were treated with different concentrations of
PO- or PS-acet.-STAT3 peptide as indicated for 3 days. The cell viability was measured by
CellTiter Glo assay and normalized with vehicle (HBSS) treatment. Data represent 3
independent experiments (n=3). SD is shown. Unpaired Student’s t-test ****; P< 0.001; **, P<
(E) Gene expression of MYC, MMP9 and BIRC5 was detected by qPCR and normalized with
ACTB after vehicle, 1 µM of PO-or PS-acet.-STAT3 peptide treatment with CRC PDX tumor
cells. Data represent 3 independent experiments (n=3). SD is shown. One-way ANOVA. ****; P<

T1 sequence (Q9UIA9 whole entry): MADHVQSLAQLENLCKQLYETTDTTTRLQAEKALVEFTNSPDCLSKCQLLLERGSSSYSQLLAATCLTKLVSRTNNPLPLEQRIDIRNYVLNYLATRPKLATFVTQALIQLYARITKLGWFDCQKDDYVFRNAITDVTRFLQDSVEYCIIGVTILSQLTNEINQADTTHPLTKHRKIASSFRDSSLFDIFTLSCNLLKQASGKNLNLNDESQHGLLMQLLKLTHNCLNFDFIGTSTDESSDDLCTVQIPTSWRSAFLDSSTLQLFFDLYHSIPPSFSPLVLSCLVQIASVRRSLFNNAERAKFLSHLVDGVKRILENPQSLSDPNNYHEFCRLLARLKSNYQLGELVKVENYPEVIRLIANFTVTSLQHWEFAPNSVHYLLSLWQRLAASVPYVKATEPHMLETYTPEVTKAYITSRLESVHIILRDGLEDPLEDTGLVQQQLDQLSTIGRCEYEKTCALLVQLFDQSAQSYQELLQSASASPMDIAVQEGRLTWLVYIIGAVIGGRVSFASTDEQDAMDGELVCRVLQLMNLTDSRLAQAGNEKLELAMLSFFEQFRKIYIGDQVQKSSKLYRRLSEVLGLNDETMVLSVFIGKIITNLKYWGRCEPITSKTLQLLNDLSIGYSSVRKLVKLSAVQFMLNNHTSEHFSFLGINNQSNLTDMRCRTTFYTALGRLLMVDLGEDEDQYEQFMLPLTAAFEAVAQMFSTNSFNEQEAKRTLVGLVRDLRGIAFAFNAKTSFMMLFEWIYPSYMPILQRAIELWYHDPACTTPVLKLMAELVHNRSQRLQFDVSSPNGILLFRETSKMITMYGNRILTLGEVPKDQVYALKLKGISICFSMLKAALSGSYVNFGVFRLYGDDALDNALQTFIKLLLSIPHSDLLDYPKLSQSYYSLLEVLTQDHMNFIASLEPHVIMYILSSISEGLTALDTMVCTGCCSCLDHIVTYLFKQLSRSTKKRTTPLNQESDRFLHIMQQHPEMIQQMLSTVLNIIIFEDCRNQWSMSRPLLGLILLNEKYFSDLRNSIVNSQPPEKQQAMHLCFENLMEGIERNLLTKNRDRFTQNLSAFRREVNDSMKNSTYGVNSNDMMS

“PDIPKEEAFGK685(Ac)YCRPESQEHPC-linker-T*C*C*A*T*G*A*G*C*T*T*C*C*T*G*A*T*G*C*T [PS-acet.-STAT3 peptide]”: the “binding to exportin 7” value in data set [1] is “bound”. The tumor growth entry in data set [2] was “significantly reduced”. Also, the “effects on cell proliferation and gene expression of STAT3 target genes in patient primary tumor spheres” value in data set [3] (3 days, CellTiter Glo, 1 µM, qPCR of MYC, MMP9, BIRC5, n = 3) was “significant inhibitory effects”. Further, in data set [3] (not told), the “cell permeability in patient primary tumor spheres” value is on record as “high cell permeability”.
